Experimental data as given in US20200187502A1, “MICROBIOCIDAL OXADIAZOLE DERIVATIVES” (SYNGENTA PARTICIPATIONS AG, priority 2017, published 2020).

Assays:
[1] = system: Puccinia recondita f. Sp. Tritici; assay: Fungicidal activity, wheat leaf disc preventative (brown rust); format: in vivo; settings: foliar, 200 ppm in the applied formulation, wheat leaf segments cv. Kanzler, compared to untreated control, 7 to 9 days after application, read-out: disease control
Procedure, shortened: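 Preventative leaf-segment test: spray application of diluted formulated compound on wheat cv. Kanzler, spore inoculation after 1 day. Percent control relative to untreated segments rated 7 to 9 days post-application, with incubation at 19° C, 75% relative humidity, 12 h photoperiod.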

[2] = system: Puccinia recondita f. Sp. Tritici; assay: Fungicidal activity, wheat leaf disc curative (brown rust); format: in vivo; settings: foliar, 200 ppm in the applied formulation, wheat leaf segments cv. Kanzler, curative (applied 1 day after inoculation), compared to untreated control, 6 to 8 days after application, read-out: disease control
Procedure: Leaf disks or leaf segments of various plant species are cut from plants grown in a greenhouse. The cut leaf disks or segments are placed in multiwell plates (24-well format) onto water agar. The leaf disks are sprayed with a test solution before (preventative) or after (curative) inoculation. Compounds to be tested are prepared as DMSO solutions (max. 10 mg/ml) which are diluted to the appropriate concentration with 0.025% Tween20 just before spraying. The inoculated leaf disks or segments are incubated under defined conditions (temperature, relative humidity, light, etc.) according to the respective test system. A single evaluation of disease level is carried out 3 to 14 days after inoculation, depending on the pathosystem. Percent disease control relative to the untreated check leaf disks or segments is then calculated.
Wheat leaf segments cv. Kanzler are placed on agar in multiwell plates (24-well format). The leaf segments are then inoculated with a spore suspension of the fungus. Plates were stored in darkness at 19° C. and 75% relative humidity. The formulated test compound diluted in water was applied 1 day after inoculation. The leaf segments were incubated at 19° C. and 75% relative humidity under a light regime of 12 hours light/12 hours darkness in a climate cabinet and the activity of a compound was assessed as percent disease control compared to untreated when an appropriate level of disease damage appears in untreated check leaf segments (6 to 8 days after application).
The following compounds at 200 ppm in the applied formulation give at least 80% disease control in this test when compared to untreated control leaf disks under the same conditions, which show extensive disease development.

[3] = system: Glomerella lacenarium (Colletotrichum lacenarium); assay: Fungicidal activity, liquid culture, cucumber preventative (anthracnose); format: cell-based; settings: 20 ppm in the applied formulation, liquid culture in PDB, inhibition of growth measured photometrically 3 to 4 days after application, compared to untreated control, read-out: disease control
Procedure, shortened: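 Spore-based broth assay: conidia mixed into PDB meet compound from a DMSO solution in 96-well format, incubate at 24° C., then inhibition of growth is determined by photometry 3–4 days later relative to the untreated check.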

CC1(C(=O)N(Cc2ccc(-c3noc(C(F)(F)F)n3)s2)C2CC2)COC1 [Compound 5.41, N-cyclopropyl-3-methyl-N-[[5-[5-(trifluoromethyl)-1,2,4-oxadiazol-3-yl]-2-thienyl]methyl]oxetane-3-carboxamide]
≥ 80%: pest or weed control at 200 ppm [1] | pest or weed control at 200 ppm [2] | inhibition of growth at 20 ppm [3]

CCN(Cc1ccc(-c2noc(C(F)(F)F)n2)s1)C(=O)CNC(C)=O [Compound 4.23, 2-acetamido-N-ethyl-N-[[5-[5-(trifluoromethyl)-1,2,4-oxadiazol-3-yl]-2-thienyl]methyl]acetamide]
≥ 80%: pest or weed control at 200 ppm [1] | pest or weed control at 200 ppm [2] | inhibition of growth at 20 ppm [3]

CCN(Cc1ccc(-c2noc(C(F)(F)F)n2)s1)C(=O)N(CCOC)CCOC [Compound 4.74, 1-ethyl-3,3-bis(2-methoxyethyl)-1-[[5-[5-(trifluoromethyl)-1,2,4-oxadiazol-3-yl]-2-thienyl]methyl]urea]
≥ 80%: pest or weed control at 200 ppm [1] | pest or weed control at 200 ppm [2] | inhibition of growth at 20 ppm [3]

CNC(=O)N(OC)C(C)c1ccc(-c2noc(C(F)(F)F)n2)s1 (stereo not drawn) [Compound 1.50, 1-methoxy-3-methyl-1-[1-[5-[5-(trifluoromethyl)-1,2,4-oxadiazol-3-yl]-2-thienyl]ethyl]urea]
≥ 80%: pest or weed control at 200 ppm [1] | pest or weed control at 200 ppm [2] | inhibition of growth at 20 ppm [3]

CCN(Cc1ccc(-c2noc(C(F)(F)F)n2)s1)C(=O)CC#N [Compound 4.29, 2-cyano-N-ethyl-N-[[5-[5-(trifluoromethyl)-1,2,4-oxadiazol-3-yl]-2-thienyl]methyl]acetamide]
≥ 80%: pest or weed control at 200 ppm [1] | pest or weed control at 200 ppm [2] | inhibition of growth at 20 ppm [3]

CCC(=O)N(C)Cc1ccc(-c2noc(C(F)(F)F)n2)s1 [Compound 4.36, N-methyl-N-[[5-[5-(trifluoromethyl)-1,2,4-oxadiazol-3-yl]-2-thienyl]methyl]propanamide]
≥ 80%: pest or weed control at 200 ppm [1] | pest or weed control at 200 ppm [2] | inhibition of growth at 20 ppm [3]

CCCN(CC1CC1)C(=O)N(Cc1ccc(-c2noc(C(F)(F)F)n2)s1)OC [Compound 1.60, 1-(cyclopropylmethyl)-3-methoxy-1-propyl-3-[[5-[5-(trifluoromethyl)-1,2,4-oxadiazol-3-yl]-2-thienyl]methyl]urea]
≥ 80%: pest or weed control at 200 ppm [1] | pest or weed control at 200 ppm [2] | inhibition of growth at 20 ppm [3]

CCCN(CC1CC1)C(=O)N(CC)Cc1ccc(-c2noc(C(F)(F)F)n2)s1 [Compound 5.53, 1-(cyclopropylmethyl)-3-ethyl-1-propyl-3-[[5-[5-(trifluoromethyl)-1,2,4-oxadiazol-3-yl]-2-thienyl]methyl]urea]
≥ 80%: pest or weed control at 200 ppm [1] | pest or weed control at 200 ppm [2] | inhibition of growth at 20 ppm [3]

CON(Cc1ccc(-c2noc(C(F)(F)F)n2)s1)C(=O)N(CC(F)F)C1CC1 [Compound 1.59, 1-cyclopropyl-1-(2,2-difluoroethyl)-3-methoxy-3-[[5-[5-(trifluoromethyl)-1,2,4-oxadiazol-3-yl]-2-thienyl]methyl]urea]
≥ 80%: pest or weed control at 200 ppm [1] | pest or weed control at 200 ppm [2] | inhibition of growth at 20 ppm [3]

CN(Cc1ccc(-c2noc(C(F)(F)F)n2)s1)C(=O)N(CC(F)F)C1CC1 [Compound 5.54, 1-cyclopropyl-1-(2,2-difluoroethyl)-3-methyl-3-[[5-[5-(trifluoromethyl)-1,2,4-oxadiazol-3-yl]-2-thienyl]methyl]urea]
≥ 80%: pest or weed control at 200 ppm [1] | pest or weed control at 200 ppm [2] | inhibition of growth at 20 ppm [3]

CCN(CC)C(=O)N(CC)Cc1ccc(-c2noc(C(F)(F)F)n2)s1 [Compound 4.73, 1,1,3-triethyl-3-[[5-[5-(trifluoromethyl)-1,2,4-oxadiazol-3-yl]-2-thienyl]methyl]urea]
≥ 80%: pest or weed control at 200 ppm [1] | pest or weed control at 200 ppm [2] | inhibition of growth at 20 ppm [3]

CN(CC#N)C(=O)N(Cc1ccc(-c2noc(C(F)(F)F)n2)s1)C1CC1 [Compound 4.86, 1-(cyanomethyl)-3-cyclopropyl-1-methyl-3-[[5-[5-(trifluoromethyl)-1,2,4-oxadiazol-3-yl]-2-thienyl]methyl]urea]
≥ 80%: pest or weed control at 200 ppm [1] | pest or weed control at 200 ppm [2] | inhibition of growth at 20 ppm [3]

O=C(C1CC1)N(Cc1ccc(-c2noc(C(F)(F)F)n2)s1)OCC(F)F [Compound 5.7, N-(2,2-difluoroethoxy)-N-[[5-[5-(trifluoromethyl)-1,2,4-oxadiazol-3-yl]-2-thienyl]methyl]cyclopropanecarboxamide]
≥ 80%: pest or weed control at 200 ppm [1] | pest or weed control at 200 ppm [2] | inhibition of growth at 20 ppm [3]

O=C(C1CC1(F)F)N(Cc1ccc(-c2noc(C(F)(F)F)n2)s1)C1CC1 (stereo not drawn) [Compound 5.42, N-cyclopropyl-2,2-difluoro-N-[[5-[5-(trifluoromethyl)-1,2,4-oxadiazol-3-yl]-2-thienyl]methyl]cyclopropanecarboxamide]
≥ 80%: pest or weed control at 200 ppm [1] | pest or weed control at 200 ppm [2] | inhibition of growth at 20 ppm [3]

CCC(=O)C(=O)N(Cc1ccc(-c2noc(C(F)(F)F)n2)s1)C1CC1 [Compound 6.56, N-cyclopropyl-2-oxo-N-[[5-[5-(trifluoromethyl)-1,2,4-oxadiazol-3-yl]-2-thienyl]methyl]butanamide]
≥ 80%: pest or weed control at 200 ppm [1] | pest or weed control at 200 ppm [2] | inhibition of growth at 20 ppm [3]

CC(C)CC(=O)C(=O)N(C)Cc1ccc(-c2noc(C(F)(F)F)n2)s1 [Compound 6.51, N,4-dimethyl-2-oxo-N-[[5-[5-(trifluoromethyl)-1,2,4-oxadiazol-3-yl]-2-thienyl]methyl]pentanamide]
≥ 80%: pest or weed control at 200 ppm [1] | pest or weed control at 200 ppm [2] | inhibition of growth at 20 ppm [3]

COCCCC(=O)N(Cc1ccc(-c2noc(C(F)(F)F)n2)s1)C(C)C [Compound 4.48, N-isopropyl-4-methoxy-N-[[5-[5-(trifluoromethyl)-1,2,4-oxadiazol-3-yl]-2-thienyl]methyl]butanamide]
≥ 80%: pest or weed control at 200 ppm [1] | pest or weed control at 200 ppm [2] | inhibition of growth at 20 ppm [3]

O=C(Cc1ccccc1)C(=O)N(Cc1ccc(-c2noc(C(F)(F)F)n2)s1)C1CC1 [Compound 6.57, N-cyclopropyl-2-oxo-3-phenyl-N-[[5-[5-(trifluoromethyl)-1,2,4-oxadiazol-3-yl]-2-thienyl]methyl]propanamide]
≥ 80%: pest or weed control at 200 ppm [1] | pest or weed control at 200 ppm [2] | inhibition of growth at 20 ppm [3]

CCOC(=O)N(Cc1ccc(-c2noc(C(F)(F)F)n2)s1)C1CC1 [Compound 4.4, ethyl N-cyclopropyl-N-[[5-[5-(trifluoromethyl)-1,2,4-oxadiazol-3-yl]-2-thienyl]methyl]carbamate]
≥ 80%: pest or weed control at 200 ppm [1] | pest or weed control at 200 ppm [2] | inhibition of growth at 20 ppm [3]

COCCCC(=O)N(Cc1ccc(-c2noc(C(F)(F)F)n2)s1)OCC(F)F [Compound 4.67, N-(2,2-difluoroethoxy)-4-methoxy-N-[[5-[5-(trifluoromethyl)-1,2,4-oxadiazol-3-yl]-2-thienyl]methyl]butanamide]
≥ 80%: pest or weed control at 200 ppm [1] | pest or weed control at 200 ppm [2] | inhibition of growth at 20 ppm [3]

CCCC(=O)N(Cc1ccc(-c2noc(C(F)(F)F)n2)s1)OCC(F)F [Compound 4.63, N-(2,2-difluoroethoxy)-N-[[5-[5-(trifluoromethyl)-1,2,4-oxadiazol-3-yl]-2-thienyl]methyl]butanamide]
≥ 80%: pest or weed control at 200 ppm [1] | pest or weed control at 200 ppm [2] | inhibition of growth at 20 ppm [3]
